Earlier results as cited in patent publication US20230104874A1, “HERBAL PREPARATION FOR PREVENTION AND TREATMENT OF HELICOBACTER PYLORI INFECTION” (HerbElixa DOO BEOGRAD- NOVI BEOGRAD, priority 2020, published 2023).

Tests used:
H. pylori = conditions: literature
Gram negative bacteria = conditions: Korona-Glowniak et al. 2020

Row | SMILES | anti-H. pylori activity in vitro (H. pylori) | antibacterial activity against Gram negative bacteria (Gram negative bacteria)
1 | Cc1ccc(C(C)C)cc1O [carvacrol] | bactericidal activity | 
2 | Cc1ccc(C(C)C)cc1 [p-cymene] |  | no antibacterial activity
3 | Cc1ccc(C(C)C)c(O)c1 [thymol] | high bactericidal activity | 
4 | CC1=CCC(C(C)C)=CC1 [γ-terpinene] |  | no antibacterial activity
